We go through seven compounds from ChEMBL document CHEMBL3112488, “Discovery of C-(1-aryl-cyclohexyl)-methylamines as selective, orally available inhibitors of dipeptidyl peptidase IV” (Bioorg Med Chem Lett, 2014).

The target in one data set is Dipeptidyl peptidase 9 (Homo sapiens, UniProt Q86TI2). Put plainly: Inhibition of human recombinant DPP9.
Data set [1] is filed under the species Rattus norvegicus. In words: animal or person. The note with it: Sprague-Dawley, Plasma, po, 8 h, read-out: INH.
For data set [2], the species on record is Rattus norvegicus. In words: animal or person. The note with it: Sprague-Dawley, Plasma, po, read-out: INH.
The target of a further data set is Dipeptidyl peptidase 8 (Homo sapiens, UniProt Q6V1X1). In words: Inhibition of human recombinant DPP8.
Sequence of Dipeptidyl peptidase 8 (Q6V1X1 whole entry): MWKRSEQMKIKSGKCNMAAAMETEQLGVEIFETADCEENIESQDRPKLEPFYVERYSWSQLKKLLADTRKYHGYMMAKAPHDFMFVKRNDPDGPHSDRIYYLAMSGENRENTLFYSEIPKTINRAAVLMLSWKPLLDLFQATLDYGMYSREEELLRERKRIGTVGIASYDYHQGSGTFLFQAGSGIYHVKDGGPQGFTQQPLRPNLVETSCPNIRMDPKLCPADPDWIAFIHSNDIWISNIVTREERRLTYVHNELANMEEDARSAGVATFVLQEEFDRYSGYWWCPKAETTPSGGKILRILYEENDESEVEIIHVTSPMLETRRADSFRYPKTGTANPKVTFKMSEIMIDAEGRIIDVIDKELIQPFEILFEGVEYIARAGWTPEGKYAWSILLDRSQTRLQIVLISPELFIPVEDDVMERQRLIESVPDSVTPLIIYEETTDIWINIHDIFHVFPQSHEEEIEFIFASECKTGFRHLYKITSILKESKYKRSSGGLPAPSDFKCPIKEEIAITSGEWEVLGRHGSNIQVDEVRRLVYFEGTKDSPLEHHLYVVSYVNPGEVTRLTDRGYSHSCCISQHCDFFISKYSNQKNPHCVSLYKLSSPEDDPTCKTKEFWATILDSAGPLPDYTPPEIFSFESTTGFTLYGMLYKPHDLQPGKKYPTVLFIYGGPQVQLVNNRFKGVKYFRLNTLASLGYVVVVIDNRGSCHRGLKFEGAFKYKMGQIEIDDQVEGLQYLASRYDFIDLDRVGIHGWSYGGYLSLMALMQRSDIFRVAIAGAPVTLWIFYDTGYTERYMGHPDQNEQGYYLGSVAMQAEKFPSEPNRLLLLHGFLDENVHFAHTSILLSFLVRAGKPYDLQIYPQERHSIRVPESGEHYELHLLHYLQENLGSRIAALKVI
The nature of data set [3]: Oral bioavailability in rat at 3 mg/kg administered in sodium acetate buffer at pH 4.63. The class given is ADME, organism-based. Conditions: in vivo.
Data set [4] can be described thus: Clearance in rat at 1 mg/kg, iv administered in sodium acetate buffer at pH 4.63. The class given is ADME, organism-based. Also on record: dose 1 mg/kg, route intravenous. Conditions: in vivo.
Data set [5] is described as follows: Half life in rat at 1 mg/kg, iv administered in sodium acetate buffer at pH 4.63. The class given is ADME, organism-based. Also on record: dose 1 mg/kg, route intravenous. Conditions: in vivo.
Data set [6] can be described thus: Volume of distribution at steady state in rat at 1 mg/kg, iv administered in sodium acetate buffer at pH 4.63. The class given is ADME, organism-based. Further details: dose 1 mg/kg, route intravenous. Conditions: in vivo, read-out: Vdss.
Data set [7] is described as follows: AUC (0 to 8 hrs) in rat at 3 mg/kg, po administered in sodium acetate buffer at pH 4.63. Further details: time < 8 hr, dose 3 mg/kg, route oral. Conditions: plasma. The class given is ADME, organism-based.
Data set [8] can be described thus: Cmax in rat at 3 mg/kg, po administered in sodium acetate buffer at pH 4.63. In kind it is ADME, organism-based. Further details: dose 3 mg/kg, route oral. Conditions: in vivo.
The nature of data set [9]: Tmax in rat at 3 mg/kg, po administered in sodium acetate buffer at pH 4.63. In kind it is ADME, organism-based. Further details: dose 3 mg/kg, route oral. The note with it: in vivo.
The target in data set [10] is Voltage-gated inwardly rectifying potassium channel KCNH2 (Homo sapiens, UniProt Q12809). Put plainly: Inhibition of human ERG by dofetilide binding assay.
Sequence of Voltage-gated inwardly rectifying potassium channel KCNH2 (Q12809 whole entry): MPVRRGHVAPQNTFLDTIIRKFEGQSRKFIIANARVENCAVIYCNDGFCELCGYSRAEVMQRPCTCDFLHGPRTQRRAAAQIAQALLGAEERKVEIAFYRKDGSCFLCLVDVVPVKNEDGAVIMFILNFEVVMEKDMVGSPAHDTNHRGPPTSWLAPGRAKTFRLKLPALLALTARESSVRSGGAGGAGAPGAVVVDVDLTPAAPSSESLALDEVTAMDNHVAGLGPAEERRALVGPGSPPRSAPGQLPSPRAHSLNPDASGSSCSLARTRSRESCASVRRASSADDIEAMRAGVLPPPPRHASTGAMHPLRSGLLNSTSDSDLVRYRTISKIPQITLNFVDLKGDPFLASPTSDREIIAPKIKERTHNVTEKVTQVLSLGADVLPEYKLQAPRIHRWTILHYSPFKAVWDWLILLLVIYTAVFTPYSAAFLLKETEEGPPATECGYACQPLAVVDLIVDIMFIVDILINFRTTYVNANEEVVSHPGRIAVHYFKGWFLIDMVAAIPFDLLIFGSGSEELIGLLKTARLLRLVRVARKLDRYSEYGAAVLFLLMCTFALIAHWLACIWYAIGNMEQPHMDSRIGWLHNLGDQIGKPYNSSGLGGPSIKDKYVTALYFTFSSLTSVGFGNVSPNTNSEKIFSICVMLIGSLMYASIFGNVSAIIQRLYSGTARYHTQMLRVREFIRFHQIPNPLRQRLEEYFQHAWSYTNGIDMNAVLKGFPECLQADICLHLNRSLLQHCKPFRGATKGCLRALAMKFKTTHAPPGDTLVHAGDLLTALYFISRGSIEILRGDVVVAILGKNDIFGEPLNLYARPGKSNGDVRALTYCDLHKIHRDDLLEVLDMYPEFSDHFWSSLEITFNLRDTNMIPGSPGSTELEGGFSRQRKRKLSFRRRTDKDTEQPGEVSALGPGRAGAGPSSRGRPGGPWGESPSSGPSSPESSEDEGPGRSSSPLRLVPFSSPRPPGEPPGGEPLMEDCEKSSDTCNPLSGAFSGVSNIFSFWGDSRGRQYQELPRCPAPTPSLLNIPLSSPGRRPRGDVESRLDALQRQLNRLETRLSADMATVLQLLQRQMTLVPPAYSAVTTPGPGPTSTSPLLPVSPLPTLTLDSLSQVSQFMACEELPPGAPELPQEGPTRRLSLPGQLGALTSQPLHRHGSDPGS
A further data set concerns the target Cytochrome P450 2D6 (Homo sapiens, UniProt P10635). In words: Inhibition of CYP2D6 (unknown origin). The class given is ADME.
Data set [11] is described as follows: Intrinsic clearance in rat liver microsomes. In kind it is ADME. A general note: Microsomes from liver hold many membrane-bound enzymes, among them those of drug oxidation.
Data set [12] in a line: Permeability from basolateral to apical side in human Caco2 cells. In kind it is ADME, cell-based. The note with it: Caco-2, read-out: permeability. (In general: Passage across Caco-2 layers is used to estimate intestinal permeability.)
Data set [13] in a line: Permeability from apical to basolateral side in human Caco2 cells. In kind it is ADME, cell-based. The note with it: Caco-2, read-out: permeability.
The nature of data set [14]: Oral bioavailability in rat at 3 mg/kg administered in PBS buffer at pH 6.8. In kind it is ADME, organism-based. Conditions: in vivo.
Data set [15] is described as follows: Clearance in rat at 1 mg/kg, iv administered in PBS buffer at pH 6.8. The class given is ADME, organism-based. Further details: dose 1 mg/kg, route intravenous. The note with it: in vivo.
A short description of data set [16]: Half life in rat at 1 mg/kg, iv administered in PBS buffer at pH 6.8. In kind it is ADME, organism-based. Further details: dose 1 mg/kg, route intravenous. The note with it: in vivo.
Data set [17] can be described thus: Volume of distribution at steady state in rat at 1 mg/kg, iv administered in PBS buffer at pH 6.8. Conditions: in vivo, read-out: Vdss. Also on record: dose 1 mg/kg, route intravenous. The class given is ADME, organism-based.
Data set [18] can be described thus: AUC (0 to 8 hrs) in rat at 3 mg/kg, po administered in PBS buffer at pH 6.8. In kind it is ADME, organism-based. Further details: time < 8 hr, dose 3 mg/kg, route oral. The note with it: plasma.
The nature of data set [19]: Cmax in rat at 3 mg/kg, po administered in PBS buffer at pH 6.8. In kind it is ADME, organism-based. Also on record: dose 3 mg/kg, route oral. Conditions: in vivo.
Data set [20] is described as follows: Tmax in rat at 3 mg/kg, po administered in PBS buffer at pH 6.8. The class given is ADME, organism-based. Also on record: dose 3 mg/kg, route oral. The note with it: in vivo.
The nature of data set [21]: Oral bioavailability in rat at 3 mg/kg administered in 10% PEG300/90% PBS. The class given is ADME, organism-based. The note with it: in vivo.
Data set [22] can be described thus: Clearance in rat at 1 mg/kg, iv administered in 10% PEG300/90% PBS. In kind it is ADME, organism-based. Further details: dose 1 mg/kg, route intravenous. The note with it: in vivo.
The nature of data set [23]: Half life in rat at 1 mg/kg, iv administered in 10% PEG300/90% PBS. The note with it: in vivo. In kind it is ADME, organism-based. Also on record: dose 1 mg/kg, route intravenous.
Data set [24] in a line: Volume of distribution at steady state in rat at 1 mg/kg, iv administered in 10% PEG300/90% PBS. In kind it is ADME, organism-based. Also on record: dose 1 mg/kg, route intravenous. Conditions: in vivo, read-out: Vdss.
The nature of data set [25]: AUC (0 to 8 hrs) in rat at 3 mg/kg, po administered in 10% PEG300/90% PBS. In kind it is ADME, organism-based. Also on record: time < 8 hr, dose 3 mg/kg, route oral. Conditions: plasma.
Data set [26] in a line: Cmax in rat at 3 mg/kg, po administered in 10% PEG300/90% PBS. In kind it is ADME, organism-based. Further details: dose 3 mg/kg, route oral. The note with it: in vivo.
Data set [27] is described as follows: Tmax in rat at 3 mg/kg, po administered in 10% PEG300/90% PBS. In kind it is ADME, organism-based. Also on record: dose 3 mg/kg, route oral. Conditions: in vivo.
The species named for data set [28] is Rattus norvegicus. Put plainly: animal or person. The note with it: Sprague-Dawley, Plasma, po, 0.5 h, read-out: INH.

Broadly, the IC50 is the concentration that gives 50% inhibition. One may read the bioavailability as dose-corrected exposure relative to a reference, in per cent. A lower bioavailability goes with poor availability. The clearance is a measure of how efficiently the substance is removed, as volume per time. Low values mean inefficient removal, high ones efficient removal. The half-life is how long it takes for the measured level to halve. A word on the AUC(0-t): it is the area under the concentration-time curve up to a stated or last time point. Read a low AUC(0-t) as low exposure. Broadly, the Cmax is the highest concentration seen after dosing. The term Tmax denotes the time at which the peak concentration occurs.

Sequence of Dipeptidyl peptidase 9 (Q86TI2 whole entry): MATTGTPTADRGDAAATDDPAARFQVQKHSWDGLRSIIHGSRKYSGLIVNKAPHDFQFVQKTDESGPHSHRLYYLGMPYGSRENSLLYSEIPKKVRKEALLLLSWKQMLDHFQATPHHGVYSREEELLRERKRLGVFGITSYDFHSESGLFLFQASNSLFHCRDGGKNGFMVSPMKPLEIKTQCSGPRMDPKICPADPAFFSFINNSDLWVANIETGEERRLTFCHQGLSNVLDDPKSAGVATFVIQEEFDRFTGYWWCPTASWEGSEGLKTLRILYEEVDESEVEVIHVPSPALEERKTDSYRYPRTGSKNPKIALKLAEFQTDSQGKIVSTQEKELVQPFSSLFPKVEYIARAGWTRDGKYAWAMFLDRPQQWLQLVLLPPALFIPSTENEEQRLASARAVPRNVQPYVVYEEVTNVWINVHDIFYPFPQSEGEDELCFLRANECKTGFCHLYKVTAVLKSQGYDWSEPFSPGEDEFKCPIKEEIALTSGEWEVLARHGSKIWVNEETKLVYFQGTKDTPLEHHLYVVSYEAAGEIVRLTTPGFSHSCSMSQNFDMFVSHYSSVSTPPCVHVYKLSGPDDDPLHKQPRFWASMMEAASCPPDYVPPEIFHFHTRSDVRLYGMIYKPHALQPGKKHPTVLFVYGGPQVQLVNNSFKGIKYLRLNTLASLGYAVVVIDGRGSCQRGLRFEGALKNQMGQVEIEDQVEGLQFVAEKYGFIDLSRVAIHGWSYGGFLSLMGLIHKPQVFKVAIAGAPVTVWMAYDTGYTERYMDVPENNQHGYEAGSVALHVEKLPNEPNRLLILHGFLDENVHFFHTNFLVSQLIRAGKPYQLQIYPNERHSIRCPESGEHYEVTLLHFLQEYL
Sequence of Cytochrome P450 2D6 (P10635 whole entry): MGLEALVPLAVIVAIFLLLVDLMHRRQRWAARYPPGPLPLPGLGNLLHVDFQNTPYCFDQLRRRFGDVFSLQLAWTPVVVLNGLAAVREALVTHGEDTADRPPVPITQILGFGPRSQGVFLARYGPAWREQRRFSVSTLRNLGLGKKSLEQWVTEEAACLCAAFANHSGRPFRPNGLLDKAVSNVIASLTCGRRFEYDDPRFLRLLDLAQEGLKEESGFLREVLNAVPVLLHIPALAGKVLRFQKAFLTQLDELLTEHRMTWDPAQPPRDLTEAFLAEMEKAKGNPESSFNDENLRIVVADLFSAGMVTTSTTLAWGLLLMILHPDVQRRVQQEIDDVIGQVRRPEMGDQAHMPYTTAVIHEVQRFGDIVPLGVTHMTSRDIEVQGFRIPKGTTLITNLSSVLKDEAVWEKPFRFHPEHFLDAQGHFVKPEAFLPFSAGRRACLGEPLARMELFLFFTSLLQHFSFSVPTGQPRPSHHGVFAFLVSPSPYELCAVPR

`Cc1ccc(=O)n([C@H]2CC[C@](CN)(c3cccc(Cl)c3)CC2)n1`: the IC50 at Dipeptidyl peptidase 9 was over 30 µM.
On to `N[C@@H](CC(=O)N1CCn2c(nnc2C(F)(F)F)C1)Cc1cc(F)c(F)cc1F` [SITAGLIPTIN], for which the values for the inhibition in vivo at 3 mg/kg in the data set listed under Rattus norvegicus [1] and in the data set listed under Rattus norvegicus [2] were 30% and 82%, respectively.
Regarding `NC[C@]1(c2cccc(Cl)c2)CC[C@H](N2CCc3c(nc(C(F)(F)F)nc3C3CC3)C2)CC1`, the IC50 at Dipeptidyl peptidase 9 and at Dipeptidyl peptidase 8 was over 30 µM in each case.
In the case of `NC[C@]1(c2cccc(Cl)c2)CC[C@H](N2CCn3c(nnc3C(F)(F)F)C2)CC1`, the IC50 at Dipeptidyl peptidase 9 came out at 30 µM.
In data set [3], `NC[C@]1(c2cccc(Cl)c2)CC[C@H](N2CCc3c(nc(C(F)(F)F)nc3C3CC3)C2=O)CC1` gave a bioavailability of 78%. The compound further returned a clearance in data set [4] of 9.5 mL/min/kg. The compound further showed a half-life in data set [5] of 2.3 h. For the same compound, the Vd in data set [6] was found to be 2.1 L/kg. Besides, in data set [7], the AUC(0-t) at 8 h was found to be 7.91 µM·h. The same compound displayed a Cmax in data set [8] of 1900 nM. In addition, the Tmax in data set [9] is 3.3 h. Also, the half-inhibitory concentration (IC50) in data set [10] was 0.26 µM; against Cytochrome P450 2D6, 10 µM. In addition, the CLint in data set [11] was 43.4 µL/min/mg. In data set [12], the Papp B→A was 11 ×10⁻⁶ cm/s. Further, in [13], the Papp A→B came to 4.4 ×10⁻⁶ cm/s.
Take `NC[C@]1(c2cccc(Cl)c2)CC[C@H](N2CCn3c(nnc3C(F)(F)F)C2=O)CC1`: in data set [14], the bioavailability came to 17%. Also, the clearance in data set [15] amounted to 69 mL/min/kg. Further, the half-life in data set [16] was 2.7 h. In addition, in data set [17], the Vd worked out at 11.7 L/kg. This compound yielded an AUC(0-t) at 8 h in data set [18] of 0.214 µM·h. Moreover, the Cmax in data set [19] turned out to be 57.8 nM. For the same compound, the Tmax in data set [20] worked out at 3.3 h. Also, the IC50 in data set [10] was over 30 µM; on Cytochrome P450 2D6, 4.5 µM. The CLint in data set [11] worked out at 21.9 µL/min/mg. The Papp B→A in [12] came out at 4.8 ×10⁻⁶ cm/s. Also, the Papp A→B in data set [13] was 1.6 ×10⁻⁶ cm/s.
Regarding `NC[C@]1(c2cccc(Cl)c2)CC[C@H](n2nc(-c3cccnc3)ccc2=O)CC1`, the bioavailability in data set [21] was 92%. The same compound came in with a clearance in data set [22] of 29 mL/min/kg. The half-life in data set [23] was 2.2 h. Moreover, the Vd in data set [24] was 3.9 L/kg. Besides, the AUC(0-t) at 8 h in [25] was found to be 4.01 µM·h. For the same compound, in [26], the Cmax is 921 nM. Also, the Tmax in data set [27] was 1.8 h. For the same compound, the IC50 was 4.4 µM in [10], over 10 µM at Cytochrome P450 2D6, over 30 µM at Dipeptidyl peptidase 9 and over 30 µM on Dipeptidyl peptidase 8. In [11], this compound registered a CLint of 51.1 µL/min/mg. Besides, the Papp B→A in [12] was determined as 13 ×10⁻⁶ cm/s. For the same compound, the Papp A→B in [13] is 8.6 ×10⁻⁶ cm/s. Further, the inhibition in vivo at 3 mg/kg in the data set filed under Rattus norvegicus [28] stood at 91%; in the data set listed under Rattus norvegicus [1] it was 80%.
